Legend:
Assay in all cases: relative viability (nuclei count vs DMSO), 5 days (fraction); higher = more cells survive
[1] = compound: Cn1cnc2c(F)c(Nc3ccc(Br)cc3Cl)c(C(=O)NOCCO)cc21 [Selumetinib] + C[C@@H](Oc1cc(-c2cnn(C3CCNCC3)c2)cnc1N)c1c(Cl)ccc(F)c1Cl [Crizotinib] (partner 1 µM)
Summary of the method: (§1)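 Each reported value is a median over duplicate plates. It expresses relative viability: treated-well nuclei count divided by vehicle-well nuclei count. Lung cancer cell lines in 1536-well plates were dosed by pin tool a day after seeding, alone with one drug or with a fixed anchor-drug dose plus five library-drug doses (not always all listed) in √10 steps, and nuclei were counted after 5 days.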

[2] = compound: Cn1cnc2c(F)c(Nc3ccc(Br)cc3Cl)c(C(=O)NOCCO)cc21 [Selumetinib] + COc1cccc2cc(-c3nc([C@H]4CC[C@H](C(=O)O)CC4)n4ncnc(N)c34)[nH]c12 [OSI-027] (partner 0.5 µM)
Summary of the method: as §1

[3] = compound: Cn1cnc2c(F)c(Nc3ccc(Br)cc3Cl)c(C(=O)NOCCO)cc21 [Selumetinib] + CC(=O)Nc1cccc(-n2c(=O)n(C3CC3)c(=O)c3c(Nc4ccc(I)cc4F)n(C)c(=O)c(C)c32)c1 [Trametinib] (partner 0.02 µM)
Summary of the method: as §1

[4] = compound: CC1(C)CCC(CN2CCN(c3ccc(C(=O)NS(=O)(=O)c4ccc(NCC5CCOCC5)c([N+](=O)[O-])c4)c(Oc4cnc5[nH]ccc5c4)c3)CC2)=C(c2ccc(Cl)cc2)C1 [Venetoclax] + O=C(c1cc(Cc2n[nH]c(=O)c3ccccc23)ccc1F)N1CCN(C(=O)C2CC2)CC1 [Olaparib] (partner 8 µM)
Summary of the method: as §1

Row | Cell Line | relative viability ([1]; first compound 0.02 µM) | relative viability ([1]; first compound 0.06325 µM) | relative viability ([1]; first compound 0.2 µM) | relative viability ([1]; first compound 0.6325 µM) | relative viability ([2]; first compound 0.02 µM) | relative viability ([2]; first compound 0.06325 µM) | relative viability ([2]; first compound 0.2 µM) | relative viability ([2]; first compound 0.6325 µM) | relative viability ([3]; first compound 0.02 µM) | relative viability ([3]; first compound 0.06325 µM) | relative viability ([3]; first compound 0.2 µM) | relative viability ([3]; first compound 0.6325 µM) | relative viability ([4]; first compound 0.01 µM) | relative viability ([4]; first compound 0.03162 µM) | relative viability ([4]; first compound 0.1 µM) | relative viability ([4]; first compound 0.3162 µM) | relative viability ([4]; first compound 1 µM)
1 | NCI-H441 | 0.724 | 0.858 | 0.78 | 0.556 | 0.593 | 0.494 | 0.598 | 0.517 | 0.457 | 0.429 | 0.573 | 0.455 | 0.627 | 0.646 | 0.568 | 0.611 | 0.582
2 | NCI-H2009 | 0.765 | 0.623 | 0.53 | 0.336 | 0.52 | 0.491 | 0.395 | 0.261 | 0.285 | 0.273 | 0.29 | 0.257 | 0.662 | 0.729 | 0.681 | 0.655 | 0.586
3 | NCI-H1944 | 1.03 | 0.887 | 0.497 | 0.71 | 0.4 | 0.391 | 0.337 | 0.335 | 0.442 | 0.398 | 0.406 | 0.389 | 0.627 | 0.394 | 0.392 | 0.418 | 0.406
4 | NCI-H1299 | 1.06 | 0.961 | 0.939 | 0.84 | – | – | – | – | – | – | – | – | 0.975 | 0.991 | 1.01 | 0.927 | 0.943
5 | EPLC-272H | 0.877 | 0.846 | 0.707 | 0.731 | 0.284 | 0.259 | 0.236 | 0.183 | 0.275 | 0.277 | 0.263 | 0.259 | 0.63 | 0.697 | 0.803 | 0.786 | 0.83
6 | NCI-H3122 | 0.238 | 0.234 | 0.23 | 0.236 | 0.709 | 0.512 | 0.417 | 0.291 | 0.202 | 0.212 | 0.199 | 0.266 | 0.644 | 0.671 | 0.637 | 0.667 | 0.603
7 | NCI-H2085 | 0.889 | 0.89 | 0.822 | 0.704 | 0.71 | 0.499 | 0.35 | 0.428 | 0.545 | 0.62 | 0.398 | 0.513 | 0.676 | 0.758 | 0.744 | 0.755 | 0.75
8 | HCC-366 | 0.492 | 0.462 | 0.308 | 0.238 | 0.911 | 0.756 | 0.72 | 0.422 | 0.365 | 0.316 | 0.332 | 0.329 | 0.4 | 0.374 | 0.372 | 0.353 | 0.311
9 | HCC-78 | 0.276 | 0.306 | 0.281 | 0.299 | 0.346 | 0.397 | 0.396 | 0.385 | 0.785 | 0.643 | 0.792 | 0.698 | 0.718 | 0.78 | 0.879 | 0.871 | 0.686
10 | COR-L23 | 0.798 | 0.653 | 0.556 | 0.622 | 0.798 | 0.782 | 0.753 | 0.565 | 0.555 | 0.469 | 0.586 | 0.511 | 0.331 | 0.473 | 0.313 | 0.382 | 0.314
11 | HCC-827 | 0.945 | 0.913 | 0.869 | 0.83 | 0.782 | 0.751 | 0.62 | 0.708 | 0.528 | 0.554 | 0.541 | 0.549 | 0.647 | 0.703 | 0.642 | 0.603 | 0.655
12 | NCI-H1437 | 0.922 | 0.896 | 0.829 | 0.561 | 0.802 | 0.56 | 0.531 | 0.324 | 0.558 | 0.546 | 0.516 | 0.528 | 0.607 | 0.616 | 0.624 | 0.615 | 0.601
13 | ABC-1 | 1.57 | 1.03 | 1.11 | 1.12 | 0.373 | 0.403 | 0.367 | 0.345 | – | – | – | – | 0.711 | 0.721 | 0.87 | 0.641 | 0.686
14 | NCI-H1793 | – | – | – | – | 0.251 | 0.243 | 0.231 | 0.258 | 0.424 | 0.414 | 0.443 | 0.436 | 0.867 | 0.892 | 0.883 | 0.806 | 0.712
15 | NCI-H1563 | 0.858 | 0.825 | 0.865 | 0.781 | 0.721 | 0.713 | 0.779 | 0.783 | – | – | – | – | – | – | – | – | –
16 | IA-LM | 0.662 | 0.54 | 0.314 | 0.335 | – | – | – | – | – | – | – | – | 0.795 | 0.819 | 0.7 | 0.795 | 0.67
17 | NCI-H1648 | – | – | – | – | 0.29 | 0.266 | 0.293 | 0.289 | – | 0.503 | 0.443 | 0.499 | – | 0.766 | 0.698 | 0.841 | 0.713
18 | NCI-H1703 | 0.664 | 0.653 | 0.647 | 0.616 | – | – | – | – | – | – | – | – | 0.35 | 0.328 | 0.333 | 0.44 | 0.476
19 | A549 | 0.715 | 0.656 | 0.495 | 0.402 | – | – | – | – | – | – | – | – | 0.302 | 0.376 | 0.311 | 0.35 | 0.339
20 | NCI-H522 | – | – | – | – | 0.693 | 0.64 | 0.685 | 0.682 | 0.859 | 0.727 | 0.757 | 0.888 | 0.561 | 0.611 | 0.612 | 0.621 | 0.688
21 | NCI-H1623 | – | – | – | – | 0.39 | 0.383 | 0.343 | 0.359 | – | – | – | – | – | – | – | – | –
22 | SW 900 | – | – | – | – | 0.594 | 0.554 | 0.477 | 0.588 | 0.68 | 0.764 | 0.875 | 0.675 | 0.76 | 0.866 | 0.841 | 0.845 | 0.819
23 | NCI-H1395 | – | – | – | – | 0.625 | 0.641 | 0.628 | 0.631 | 1.09 | 0.964 | 0.932 | 1.05 | 0.451 | 0.484 | 0.447 | 0.473 | 0.427
24 | EBC-1 | 0.179 | 0.16 | 0.175 | 0.147 | – | – | – | – | – | – | – | – | 0.636 | 0.77 | 0.662 | 0.647 | 0.662
